Assay [1] relates to α2 -adrenoceptor. Put plainly: α2-adrenoceptor antagonistic activity on the rat field stimulated vas deferens preparation (vs clonidine). As to conditions: for α2 /α1 selectivity [antilog of (α2 pA2 -α1 pA2)]: from vas deferens α2 pA2 and anococcygeus α1 pA2; for pA2 for α2 -adrenoceptor antagonistic activity: rat field stimulated vas deferens, agonist clonidine, Schild plot, 90 min. The procedure: The compounds of the invention are tested for α2 -adrenoceptor antagonistic activity on the rat field stimulated vas deferens preparation using a modification of the method of Drew, Eur. J. Pharmac., 1977, 42, 123-130. The procedure is described below.
Desheathed vasa deferentia from sexually mature rats were suspended in a 6 ml organ bath in Krebs solution at 37° and bubbled with 5% CO2 in oxygen. Platinum ring electrodes were positioned above and below the tissue for field stimulation, the stimulus parameters being 0.1 Hz 1 ms pulse width at supramaximal voltage. Twitch responses were recorded isotonically with a 0.5 g loading. Clonidine hydrochloride was used as the α-adrenoceptor agonist and cumulative concentration-response curves were constructed for the inhibition of twitch obtained with clonidine in the range 0.125 to 4 ng ml^-1. After washing out clonidine, the twitch response quickly recovered and an antagonist was then introduced into the Krebs reservoir. Clonidine concentration-response curves were repeated 90 min after introduction of the antagonist. The concentration of clonidine producing 50% inhibition of twitch before and after introduction of antagonist were obtained and the dose-ratio for clonidine was calculated. Various concentrations of the antagonists were used.
Chemother., 1959, 14, 48-58 and the values of pA2 and slope were calculated.

The test system of assay [2] is α1 -adrenoceptors. Put plainly: α1 antagonistic activity on the isolated anococcygeus muscle of the rat (vs phenylephrine or methoxamine). As to conditions: agonist phenylephrine or methoxamine, Schild method, 30 min. An excerpt:
The compounds of the invention generally antagonise the α2 -adrenoceptors to a much greater extent than the α1 -adrenoceptors. The α1 antagonistic activity can be evaluated by a number of different methods. One method involves assessing the activity on the isolated anococcygeus muscle of the rat. The method is based on that of Gillespie, Br.J.Pharmac., 1972, 45, 404-416. In the procedure male rats (250-360 g) are killed by a blow on the head and bled. The two anococcygeus muscles are removed from their position in the midline of the pelvic cavity, where they arise from the upper coccygeal vertebrae. The muscles are suspended in 5 ml organ baths in Krebs solution containing 10^-4 M ascorbic acid; to prevent drug oxidation. The tissues are gassed with a 95% oxygen, 5% CO2 mixture and maintained at 37°. Longitudinal muscle contractions are recorded using isotonic transducers. Cumulative dose response curves are then obtained to phenylephrine or in some cases methoxamine, both agents being […] alpha adrenoceptor agonists. The concentration range of phenylephrine or methoxamine used is 0.02 to 0.8 μg.ml^-1. The agonist is then washed from the bath and the test drug added to the bathing medium at a concentration of 10^-6 M. After 30 min equilibration with the test drug a further agonist dose response curve is obtained. […]

Structures are written as SMILES.

The values below come from patent US4717731A, “7H thieno[2,3-a]quinolizines, useful as α2 -andrenoceptor antagonist” (John Wyeth & Brother Limited, priority 1984, dated 1988).

On to `CCCS(=O)(=O)N(C)[C@@H]1CCN2CCc3ccsc3[C@@H]2C1` (relative stereo) [Example 2, N-(4,5,8,9,10,10aα-hexahydro-7H-thieno[2,3-a]quinolizin-9β-yl)-N-methylpropanesulphonamide], for which, in assay [1], the “α2 /α1 selectivity [antilog of (α2 pA2 -α1 pA2)]” value is on record as 40 and the “pA2 for α2 -adrenoceptor antagonistic activity” value came to 7.5. The “pA2 values for α1 antagonistic activity” value in assay [2] was determined as 5.9.

For `CCS(=O)(=O)NCCN([C@@H]1CCN2CCc3ccsc3[C@@H]2C1)S(=O)(=O)CC` (relative stereo) [Example 5, N-(4,5,8,9α,10,10aα-Hexahydro-7H-thieno[2,3-a]quinolizin-9-yl)-N-(2-ethanesulphonamidoethyl)ethane sulphonamide], in assay [1], the “α2 /α1 selectivity [antilog of (α2 pA2 -α1 pA2)]” value was 132 and the “pA2 for α2 -adrenoceptor antagonistic activity” value was 7.31. Moreover, the “pA2 values for α1 antagonistic activity” value in assay [2] is reported as 5.18.
